The source of these data is patent publication US9352010B2, “Treatment of HIV-1 infection and AIDS” (The J. David Gladstone Institutes, priority 2011, dated 2016).

Experiment [1] concerns SupT1 CD4 T leukemic cells. Briefly: Syncytia formation in NL4-3-infected SupT1 cells. The format is cell-based. The conditions noted are these: 5 μM protease inhibitor, 2.5 days. The procedure:
(A) The spinoculation procedure. (B) Flow cytometry of viable CD4 versus CD8-T-cells in HLAC three days after spinoculation in the presence of the indicated drugs. Data represent live-gated cells, based on the forward-scatter versus side-scatter profile of the complete culture. Of note, apoptotic cells were included in the analysis of caspases activity and cytokine expression (FIG. 10E, F). Drugs concentrations: AZT 5 μM; Efavirenz 100 nM; AMD3100 250 nM; T20 10 μg/ml. The data are representative results of six independent experiments with six different donors. […] (C) Highly permissive SupT1 CD4 T leukemic cells were infected with NL4-3 and cultivated for 3 days to allow substantial infection but not syncytia formation. […] After 2.5 days of additional culture, the extent of syncytia formation in each sample was evaluated by light microscopy. […] Results are representative of three independent experiments.

Experiment [2] concerns SupT1 cells. Description: Virion-based fusion assay (BlaM-Vpr). The format is cell-based. The conditions noted are these: virions produced in the presence of amprenavir. The procedure: The virion-based fusion assay is performed in three successive steps: (1) incubation of target cells with virions, (2) loading of target cells with the CCF2/AM dye, and (3) development and detection of the BlaM reaction. SupT1 cells (5×10^5) were incubated with BlaM-Vpr containing virions (400 ng of p24^gag at 37° C. for 2 hours, washed in CO2-independent medium (GibCo BRL), and loaded with CCF2/AM dye as described by the manufacturer (Invitrogen). Briefly, 2 μl of CCF2/AM (1 mM) was mixed with 8 μl of 0.1% acetic acid containing 100 mg/ml Pluronic-F127R and 1 ml of DEEM to constitute the loading solution. Cells were incubated in 100 μl of loading solution for 1 hour at room temperature. After two washes with DEEM, the BlaM reaction was executed for 16 hours at room temperature in 200 μl of DMEM supplemented with 10% FBS and 2.5 mM probenecid, a nonspecific inhibitor of anion transport (Sigma Pharmaceuticals). Finally, the cells were washed once in DMEM and fixed in a 2% solution of paraformaldehyde. The change in emission fluorescence of CCF2 after cleavage by the BlaM-Vpr chimera was monitored by flow cytometry with LSR2 (Becton Dickinson, San Jose, Calif.). Data were collected with DiVa software and analyzed with FlowJo software (Treestar, San Carlos, Calif.).

The test system of experiment [3] is CFSE-labeled CD4 T-cells. The class given is cell-based, human. The settings on record: NL4-3-infected effector cells. The procedure: (A) Experimental strategy to assess indirect cell killing in HIV-1-infected human lymphoid cultures. Fresh human tonsil tissue from a single donor is processed into HLAC, and then separated into two fractions. One fraction is challenged with HIV-1 and cultured for 6 days, allowing viral spread. On day 5, the uninfected fraction is treated with AZT (5 μM) and labeled with CFSE (1 μM). On day 6, the infected and CFSE-labeled (i.e., uninfected) cultures are mixed and co-cultured in the presence of AZT. […] After 6 days of co-culturing, the number of viable CFSE-positive cells is determined by flow cytometry. (B) Flow cytometry analysis of the mixed HLACs. Indirect killing is determined by gating on live CFSE-positive cells in the mixed cultures. Effector cells are either infected or uninfected cells. […] CFSE-labeled cells mixed with uninfected or infected cells were cultured in the presence of 5 μM AZT alone or together with 250 nM AMD3100. Data represent live CFSE-positive cells 6 days after co-culture with infected or uninfected effector cells. […] The absolute numbers of viable CFSE-positive CD4 and CD8 T-cells and B cells were determined. Percentages are normalized to the number of viable CFSE-positive cells co-cultured with uninfected cells in the presence of AZT, as depicted by (*). Error bars represent standard deviations of three samples from the same donor. […] See also FIG. 3.
Human tonsil or splenic tissues from routine tonsillectomies were obtained from the National Disease Research Interchange and the Cooperative Human Tissue Network and processed as previously described (Jekle et al., 2003, J Virol 77:5846-5854). In brief, tonsils or spleen were minced, passed through a 40-μm cell strainer, and cultured in 96-well U-bottomed polystyrene plates (2×10^6 cells/well) in medium (200 μl/well) consisting of RPMI 1640 supplemented with 15% heat-inactivated fetal bovine serum, 100 μg/ml gentamicin, 200 μg/ml ampicillin, 1 mM sodium pyruvate, 1% nonessential amino acids (Mediatech), 2 mM L-glutamine, and 1% fungizone (Invitrogen). All HIV-1 infections were carried out with 20-50 ng of HIV-1 p24^gag. Cells were incubated with the virus for 12-16 h, washed extensively, and supplemented with fresh medium. After day 5, infections were monitored by measuring p24gag levels in the culture medium using a FLAQ assay (Hayden et al., 2003, AIDS 17:629-631). Infected and uninfected cultures were manipulated as described for individual experiments. In “indirect killing” assays, unless otherwise stated, drugs were used at the following concentrations: 5 μM AZT; 250 nM AMD3100; 10 μg/ml T20; 100 nM Efavirenz; 1 μM Nevirapine; 30 μM Raltegravir; 60 μM 118-D-24; 5 μM Amprenavir; 5 μM Saquinavir; 5 μM Indinavir. CFSE-labeled cells were activated with PHA (5 μg/ml) and IL-2 (20 ng/ml) 2 days before mixing with effector cells.
Uninfected cells (5×10^6/ml) were labeled with 1 μM CFSE (Molecular Probes C1157), treated with 5 μM AZT for 24 h, and co-cultured with effector cells. CFSE readily diffuses into cells, where intracellular esterases cleave the acetate groups, converting it to a fluorescent, membrane-impermeable dye.

In experiment [4] the test system is HLAC CD4 T-cells. Briefly: HLAC cells overlaid on virus-producing 293T-cells, CD4 T-cell depletion. The format is cell-based, human. The settings on record: TR712-transfected 293T-cells in the presence of amprenavir. The procedure:
HLACs were infected with viruses derived from the indicated HIV proviral clones in the presence of the indicated concentrations of AZT or in the absence of drugs. Six days after infection the amount of p24^gag in the medium was determined by FLAQ assay. The amount of p24^gag in the medium after infection wash (day 0) was defined as 0%. […] Viral incorporation of endogenous A3G was measured by immunoblot analysis of purified NL4-3 and Δvif NL4-3 virions harvested from 1 ml of supernatant from infected HLACs. Doses reflect 1:10 dilutions. […] Resting or activated CFSE-labeled cells were co-cultured with cells infected with WT or Δvif NL4-3 in the presence or absence of the following drugs, AZT (5 μM), AMD3100 (250 nM), the NNRTIs Efavirenz (100 nM), and Nevirapine (1 μM), or the integration inhibitors Raltegravir (30 μM) and 118-D-24 (60 μM). Data are representative of four independent experiments performed with cells from four different donors. (E) A method to assess indirect killing in HLAC with non-infectious HIV-1 clones. Fresh human tonsil is processed into HLAC and cells are cultured in suspension. At the same time 293T-cells are transfected with 1 μg HIV-1 DNA in a 24-well plate. After 12 hours, 293T-cells are washed and overlayed with 3×10^6 HLAC cells in RPMI in the presence of the indicated drugs. Virus-producing 293T-cells directly interact with target overlaying HLAC cells. After 24 hours, the HLAC suspensions are collected from wells and analyzed by flow cytometry. […] HLAC were cultured with the indicated drugs 3 hours before co-culture with 293T-cells. Percentages are normalized to the number of viable CD4 T-cells in HLAC overlaying non-transfected 293T-cells in the presence of AZT, as depicted by (*). Error bars represent standard error of the mean of three experiments performed using cells from three different HLAC donors.

Experiment [5] deals with NL4-3 and TR712 virions. Briefly: Viral maturation, immunoblot of viral lysates produced in 293T-cells. The class given is cell-based. The settings on record: NL4-3 and TR712 virions produced with amprenavir. Background: A western blot detects proteins with antibodies after separation by electrophoresis.
Experimental: NL4-3 and TR712 viruses were generated in 293T-cells with or without amprenavir, lysed and subjected to SDS-PAGE immunoblotting analysis for gp120, p55 Gag, p24 CA, Blam-Vpr, and free Blam. […] SupT1 cells were mock infected or infected with mature or immature NL4-3 or TR712 virions containing Blam-Vpr. After loading of cells with CCF2 dye, fusion was analyzed by flow cytometry. Percentages are the fraction of cells displaying increased cleaved CCF2 fluorescence, indicating virion fusion.
The effect of protease inhibitors on viral maturation was assessed first. NL4-3 viruses carrying a β-lactamase-Vpr (BlaM-Vpr) reporter protein were produced in 293T-cells in the presence or absence of the HIV protease inhibitor amprenavir.

`CC(C)CN(C[C@@H](O)[C@H](Cc1ccccc1)NC(=O)O[C@H]1CCOC1)S(=O)(=O)c1ccc(N)cc1` [Amprenavir]: the “syncytia formation / cell-cell fusion” value in experiment [1] is on record as “do not block syncytia formation”. For the same compound, in experiment [2], the “decline in fusogenic properties of immature NL4-3 viruses” value was determined as 90% and the “fusion capacity retained by immature TR712” value stood at 40%. Besides, in experiment [3], the “indirect killing (loss) of resting CFSE-labeled CD4 T-cells” value is listed as “inhibit indirect killing”. In addition, the “CD4 T-cell killing by TR712 viruses” value in experiment [4] is recorded as “prevented CD4 T-cell killing by TR712 viruses”. Besides, the “Gag processing in virions” value in experiment [5] is on record as “an uncleaved form of p55 Gag polypeptide rather than the mature p24 CA protein accumulated”.
